Source: EP1935986B1, “Luminogenic and fluorogenic compounds and methods to detect molecules or conditions” (priority 2005, dated 2006)

What was measured:
[1] = tested on: thermostable luciferase (Luc 146-1H2); assay: Residual thermostable luciferase activity after reaction with luciferin derivatives (Steady Glo); assay type: biochemical; details: Substrate 100
Procedure: (§1) This stock was used to produce enzyme stock solution having of 200 µg/ml enzyme solution in 1 mg/ml BSA, 200 mM HEPES buffer, pH 8.0, 20 mM MgCl2.
(§2) Solutions were made using a 1 M DTT solution, pH adjusted to 8.0, a 20 mM Coenzyme A solution in water (both described in examples above), a 100 mM ATP solution and water to create the following solutions: Sol'A, 100 µM ATP; Sol'B, 100 µM ATP, 4 mM Coenzyme A; Sol'n C, 100 µM ATP, 400 mM DTT, and; Sol'n D, 100 µM ATP, 4 mM Coenzyme A and 400 mM DTT.
(§3) After assembly, the reactions were initiated by addition of 25 µl of the thermostable luciferase stock solution above and mixing the tube contents. A 50 µl sample was immediately removed and placed in a luminometer tube and the light read and the tube then replaced in a tube rack at room temperature. While the light reading was being taken, a 5 µl sample of the remaining reaction (which was kept at room temperature) was diluted into 495 µl of 50 mM BisTris, pH 6.5, 1 mg/ml BSA, 1 mM EDTA prechilled to 4°C and the tube mixed and placed on ice. The light produced by the samples in the luminometer tubes were re-read at 20, 40, 60, 90 and 120 minutes post enzyme addition. Additional 5 µl samples were taken and diluted as above at 60 and 120 minutes post enzyme addition. Once all these readings and samples were taken, 50 µl of the diluted samples was mixed with 50 µl of Steady Glo in luminometer tubes, the tubes incubated 10 minutes on ice then the light produced was read on a Turner TD 20/20 luminometer.

[2] = target: T1, QuantiLum Luciferase (Photinus pyralis, UniProt P08659); assay: Scaffolds: light emission of luciferin derivatives with QuantiLum luciferase alone, + Co A, + DTT, + Co A and DTT; assay type: biochemical, firefly
T1 construct: purchased Promega Corporation E170
Procedure: The DTT, Coenzyme A, and QuantiLum stock solutions are the same as those described herein.
This solution was diluted 1:1 with water to produce an enzyme solution labeled "No addition." This solution was diluted 1:1 with 400 mM DTT, pH 8.0 to produce a solution labeled +DTT. This solution was diluted 1:1 with 4 mM Coenzyme A to produce a solution labeled + Co A. Finally, this solution was diluted 1:1 with a solution having both 4 mM Coenzyme A and 400 mM DTT to produce a solution labeled +Co A & DTT.
50 µl samples of these solutions were placed in the wells of luminometer microtiter plates, row A to row G, respeutivly. Row H of the plates was given 50 µl of water.
Reactions in these plates were initiated by addition of 50 µl of solution containing QuantiLum luciferase using a 12 channel micropipette. The solutions added to the rows were: columns 1, 5, and 9 - no addition solution; columns 2, 6, and 10 - + Co A solution; columns 3, 7, and 11 + DTT solution, and; columns 4, 8, and 12 - + Co A and DTT solution. After addition of the enzyme solution to the first row on every plate, a timer was started. After addition of the enzyme solution to the last row on each plate, the plate was sealed and read on a Veritas luminometer.

[3] = tested on: thermostable luciferase (Luc 146-1H2); assay: Thermostable luciferase reaction with luciferin derivatives: light readings; assay type: biochemical; details: 100 µM each; result in words
Procedure: as §1, §2
The following reactions were prepared (Table 47) Table 47
as §3

[4] = Derivative Conc. 1.07, Co A + DTT
[5] = Derivative Conc. 3.13, Co A + DTT
[6] = Derivative Conc. 6.25, Co A + DTT
[7] = Derivative Conc. 12.5, Co A + DTT
[8] = Derivative Conc. 25, Co A + DTT
[9] = Derivative Conc. 50, Co A + DTT
[10] = Derivative Conc. 100, Co A + DTT

T1 sequence (P08659 whole entry): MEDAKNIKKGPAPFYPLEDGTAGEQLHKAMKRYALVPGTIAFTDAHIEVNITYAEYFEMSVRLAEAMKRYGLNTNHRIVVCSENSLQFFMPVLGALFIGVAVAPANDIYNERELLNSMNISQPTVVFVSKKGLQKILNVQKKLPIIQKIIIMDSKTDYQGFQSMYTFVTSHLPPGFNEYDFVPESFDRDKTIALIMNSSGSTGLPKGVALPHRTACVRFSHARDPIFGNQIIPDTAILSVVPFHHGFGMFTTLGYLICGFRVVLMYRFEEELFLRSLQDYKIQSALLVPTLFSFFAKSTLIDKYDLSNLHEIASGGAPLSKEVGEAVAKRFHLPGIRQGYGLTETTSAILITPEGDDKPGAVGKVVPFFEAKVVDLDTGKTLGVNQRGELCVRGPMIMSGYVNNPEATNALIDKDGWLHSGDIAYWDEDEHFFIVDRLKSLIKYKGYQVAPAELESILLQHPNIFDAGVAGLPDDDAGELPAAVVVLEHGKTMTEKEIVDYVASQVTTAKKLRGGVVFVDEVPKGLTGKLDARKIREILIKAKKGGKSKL

Row | Structure (SMILES) | light emission values ([2]; Derivative Conc. 1.07, Alone) | light emission values ([2]; Derivative Conc. 1.07, Co A) | light emission values [2, 4] | light emission values ([2]; Derivative Conc. 1.07, DTT) | light emission values ([2]; Derivative Conc. 3.13, Alone) | light emission values ([2]; Derivative Conc. 3.13, Co A) | light emission values [2, 5] | light emission values ([2]; Derivative Conc. 3.13, DTT) | light emission values ([2]; Derivative Conc. 6.25, Alone) | light emission values ([2]; Derivative Conc. 6.25, Co A) | light emission values ([2]; Derivative Conc. 6.25, DTT) | light emission values ([2]; Derivative Conc. 12.5, Alone) | light emission values ([2]; Derivative Conc. 12.5, Co A) | light emission values [2, 7] | light emission values ([2]; Derivative Conc. 12.5, DTT) | light emission values ([2]; Derivative Conc. 25, Alone) | light emission values ([2]; Derivative Conc. 25, Co A) | light emission values [2, 8] | light emission values ([2]; Derivative Conc. 25, DTT) | light emission values ([2]; Derivative Conc. 50, Alone) | further results
1 | O=C(O)[C@H]1CSC(c2nc3ccc(OCCCl)cc3s2)=N1 [L' in-CEE] | – | – | – | – | – | – | – | – | – | – | – | – | – | – | – | – | – | – | – | – | light values obtained upon addition of the diluted reaction samples into Steady Glo reagent ([1]; + Co A & DTT, Time Sample Taken 0 min): 1745; light values obtained upon addition of the diluted reaction samples into Steady Glo reagent ([1]; + Co A & DTT, Time Sample Taken 60 min): 1319; light values obtained upon addition of the diluted reaction samples into Steady Glo reagent ([1]; + Co A & DTT, Time Sample Taken 120 min): 1343; light values obtained upon addition of the diluted reaction samples into Steady Glo reagent ([1]; + Co A, Time Sample Taken 0 min): 1127; light values obtained upon addition of the diluted reaction samples into Steady Glo reagent ([1]; + Co A, Time Sample Taken 60 min): 1055; light values obtained upon addition of the diluted reaction samples into Steady Glo reagent ([1]; + Co A, Time Sample Taken 120 min): 770.5; light values obtained upon addition of the diluted reaction samples into Steady Glo reagent ([1]; + DTT, Time Sample Taken 0 min): 1168; light values obtained upon addition of the diluted reaction samples into Steady Glo reagent ([1]; + DTT, Time Sample Taken 60 min): 501.5; light values obtained upon addition of the diluted reaction samples into Steady Glo reagent ([1]; + DTT, Time Sample Taken 120 min): 1478; light values obtained upon addition of the diluted reaction samples into Steady Glo reagent ([1]; Alone, Time Sample Taken 0 min): 1262; light values obtained upon addition of the diluted reaction samples into Steady Glo reagent ([1]; Alone, Time Sample Taken 60 min): 1203; light values obtained upon addition of the diluted reaction samples into Steady Glo reagent ([1]; Alone, Time Sample Taken 120 min): 1273
2 | O=C(O)[C@H]1CSC(c2nc3ccc(OCCO)cc3s2)=N1 [2hydroxyethoxyluciferin ether] | 8807 | 13847 | 22105 | 24491 | 10769 | 14986 | 32555 | 36967 | 14686 | 18532 | 48458 | 19586 | 21636 | 54630 | 61882 | 27356 | 28679 | 67303 | 76612 | 38444 | light emission values [2, 6]: 42815; light emission values ([2]; Derivative Conc. 50, Co A): 39320; light emission values [2, 9]: 87170; light emission values ([2]; Derivative Conc. 50, DTT): 98407; light emission values ([2]; Derivative Conc. 100, Alone): 53804; light emission values ([2]; Derivative Conc. 100, Co A): 52640; light emission values [2, 10]: 94724; light emission values ([2]; Derivative Conc. 100, DTT): 128249
3 | CN(Cc1ccccc1)c1ccc2nc(C3=NC(C(=O)O)CS3)sc2c1 (stereo not drawn) [methylbenzylaminoluciferin] | 25907602 | 12863007 | 2037020 | 929977 | 34516960 | 23501282 | 9404429 | 8088743 | 43052788 | 35730272 | 21756222 | 50528576 | 50418220 | 30367190 | 36663612 | 61572912 | 63598896 | 42613860 | 50632712 | 73867336 | light emission values [2, 6]: 19738584; light emission values ([2]; Derivative Conc. 50, Co A): 78390592; light emission values [2, 9]: 47965140; light emission values ([2]; Derivative Conc. 50, DTT): 54238960; light emission values ([2]; Derivative Conc. 100, Alone): 85579872; light emission values ([2]; Derivative Conc. 100, Co A): 89117784; light emission values [2, 10]: 48409604; light emission values ([2]; Derivative Conc. 100, DTT): 50806656
4 | CN(C)c1ccc2nc(C3=NC(C(=O)O)CS3)sc2c1 (stereo not drawn) [dimethyl amino luciferin] | – | – | – | – | – | – | – | – | – | – | – | – | – | – | – | – | – | – | – | – | brightness of luciferase reaction relative to amino luciferin [3]: about half as bright
5 | COC(=O)[C@H]1CSC(c2ccc3cc(Oc4ccc(C(F)(F)F)cc4[N+](=O)[O-])ccc3n2)=N1 [GST #4] | 1146 | 1533 | 1714 | 1102 | 1537 | 1635 | 2034 | 1458 | 1571 | 1562 | 1633 | 1692 | 1275 | 1891 | 1474 | 1413 | 1026 | 1640 | 1492 | 1598 | light emission values [2, 6]: 1730; light emission values ([2]; Derivative Conc. 50, Co A): 1366; light emission values [2, 9]: 1729; light emission values ([2]; Derivative Conc. 50, DTT): 1354; light emission values ([2]; Derivative Conc. 100, Alone): 2119; light emission values ([2]; Derivative Conc. 100, Co A): 1853; light emission values [2, 10]: 1990; light emission values ([2]; Derivative Conc. 100, DTT): 1618
6 | CCN(CC)c1ccc2nc(C3=NC(C(=O)O)CS3)sc2c1 (stereo not drawn) [diethylaminoluciferin] | 656110 | 688887 | 20592 | 5192 | 2259570 | 1941060 | 93423 | 47727 | 4009797 | 3457051 | 165732 | 5418990 | 4485779 | 645536 | 682672 | 6763022 | 5623886 | 1067954 | 1304383 | 8176569 | light emission values ([2]; Derivative Conc. 50, Co A): 7206157; light emission values [2, 9]: 1538668; light emission values ([2]; Derivative Conc. 50, DTT): 1826771; light emission values ([2]; Derivative Conc. 100, Alone): 9082149; light emission values [2, 10]: 1960750; light emission values ([2]; Derivative Conc. 100, DTT): 2180983
